From patent US20240082282A1 (priority 2020, published 2024)
Values after ≈ are worked out from the molar mass of the structure shown. Where two headings read alike, the source gives them in different places.

Assays:
[1] = tested on: Clostridium perfringens KLE 2326; experiment: microbe, parasite or virus in culture; type: cell-based
[2] = tested on: Borreliella burgdorferi B31
[3] = tested on: Streptococcus parasanguinis KLE 2375; type: cell-based; conditions: Streptococcus parasanguinis KLE 2375, anaerobic, stool isolate
[4] = tested on: Lactobacillus reuteri ATCC 23272; type: cell-based
[5] = tested on: Salmonella typhimurium LT2 ATCC 19585; type: cell-based
[6] = tested on: Bacteroides cellulosilyticus KLE 2342; type: cell-based; conditions: Bacteroides cellulosilyticus KLE 2342, anaerobic, stool isolate
[7] = tested on: Fusobacterium nucleatum KLE 2428; type: cell-based; conditions: Fusobacterium nucleatum KLE 2428, anaerobic, stool isolate
[8] = tested on: Borrelia burgdorferi BbP1286; experiment: microbe, parasite or virus in culture; conditions: Borreliella burgdorferi, BBP1286, read-out: Minimum inhibitory concentration (MIC)
[9] = tested on: Brevinema andersonii ATCC 43811
[10] = tested on: Parabacteroides merdae KLE 2238; type: cell-based; conditions: Parabacteroides merdae KLE 2238, anaerobic, stool isolate
[11] = tested on: Leptospira biflexa ATCC 23582; conditions: for MIC: Leptospira biflexa
[12] = tested on: Enterobacter cloacae ATCC 13047; type: cell-based; conditions: Enterobacter cloacae ATCC 13047, anaerobic
[13] = tested on: Shigella sonnei ATCC 25931; type: cell-based
[14] = tested on: Bifidobacterium longum ATCC BAA-999; type: cell-based
[15] = tested on: Bacteroides nordii KLE 2369; type: cell-based; conditions: Bacteroides nordii KLE 2369, anaerobic, stool isolate
[16] = tested on: Borrelia turcica DSM 16138; conditions: for MIC: Borrelia turcica
[17] = tested on: Blautia producta ATCC 27340; type: cell-based; conditions: Blautia producta ATCC 27340, anaerobic
[18] = tested on: Borreliella burgdorferi N40
[19] = tested on: Bacteroides eggerthii KLE 2382; type: cell-based; conditions: Bacteroides eggerthii KLE 2382, anaerobic, stool isolate
[20] = tested on: Streptococcus salivarius KLE 2370; type: cell-based; conditions: Streptococcus salivarius KLE 2370, anaerobic, stool isolate
[21] = tested on: Staphylococcus epidermidis KLE 2378; type: cell-based; conditions: Staphylococcus epidermidis KLE 2378, anaerobic, stool isolate
[22] = tested on: Bacteroides ovatus KLE 2306; type: cell-based; conditions: Bacteroides ovatus KLE 2306, anaerobic, stool isolate
murine gut microbiome = experiment: Impact on the murine fecal microbiome (16S rRNA sequencing)
Procedure: Stool samples were collected and V4 region of the 16s rRNA gene was amplified using primers and sequenced (IonTorrent).
Fecal pellets were collected 3 days before and 3 days after antibiotic treatment and were stored at −80° C. in PBS. Sequencing of a stool pellet from each mouse from before and after treatment was performed by MR DNA (www.mrdnalab.com, Shallowater, TX, USA) on an Ion Torrent PGM. Using PCR primers, the V4 variable region of the 16SrRNA gene was amplified in a single-step 30 cycle PCR with the HotStarTaq Plus Master Mix Kit (Qiagen, USA). The following conditions were used: 94° C. for 3 minutes and 30 cycles of 94° C. for 30 seconds, 53° C. for 40 seconds and 72° C. for 1 minute, then a final elongation step for 5 minutes at 72° C. […] Barcodes and primers and then sequences<150 bp were removed. Further, sequences with homopolymer runs exceeding 6 bp and sequences with ambiguous calls were removed. The sequences were then denoised, OTUs were generated, and chimeras were removed; OTUs were clustered at 3% divergence. Taxonomic classification was performed using BLASTn against a database derived from RDPII available at www.rdp.cme.msu.edu) and NCBI (www.ncbi.nlm.nih.gov). The change in relative abundance of the most abundant genera from before to after treatment of each individual mouse was reported. Further, raw sequences were processed in Qiita (Gonzalez, A., et al. (2018). Nat Methods 15, 796-798; the contents of which are herein incorporated by reference in its entirety) and were demultiplexed, trimmed to 100 bp, and closed reference OTU picking was performed against the Greengenes database at 97% similarity (McDonald, D. et al. (2012). ISME J 6, 610-618; the contents of which are herein incorporated by reference in its entirety). The alpha diversity based on the Simpson index was calculated in Qiita. The change in the Simpson index was calculated for the fecal microbiome of each mouse from before to after treatment. Statistical significance was calculated using a one-way ANOVA with Tukey's multiple comparisons test (p<0.05).

C[C@H]1c2cccc(O)c2C(=O)C2=C(O)[C@]3(O)C(=O)C(C(N)=O)=C(O)[C@@H](N(C)C)[C@@H]3[C@@H](O)[C@@H]21 [Doxycycline]
MIC ([1]; Clostridium perfringens, KLE2326, read-out: Minimum inhibitory concentration (MIC)): 0.25 µg/mL (≈ 0.563 µM) | MIC ([2]; Borreliella burgdorferi, B31, read-out: Minimum inhibitory concentration (MIC)): 0.25 µg/mL (≈ 0.563 µM) | MIC ([3]; KLE2375, read-out: Minimum inhibitory concentration (MIC)): 4 µg/mL (≈ 9 µM) | MIC (Borrelia afzelii; Borreliella afzelii, read-out: Minimum inhibitory concentration (MIC)): 0.12 µg/mL (≈ 0.27 µM) | MIC ([4]; Limosilactobacillus reuteri, ATCC23272, Lactobacillus reuteri ATCC 23272, anaerobic, read-out: Minimum inhibitory concentration (MIC)): 8 µg/mL (≈ 18 µM) | MIC ([5]; Salmonella enterica, Salmonella typhimurium LT2 ATCC 19585, anaerobic, read-out: Minimum inhibitory concentration (MIC)): 8 µg/mL (≈ 18 µM) | MIC ([6]; KLE2342, read-out: Minimum inhibitory concentration (MIC)): 2 µg/mL (≈ 4.5 µM) | MIC ([7]; KLE2428, read-out: Minimum inhibitory concentration (MIC)): 0.12 µg/mL (≈ 0.27 µM) | MIC [8]: 0.25 µg/mL (≈ 0.563 µM) | MIC ([9]; Brevinema andersonii, ATCC43811, read-out: Minimum inhibitory concentration (MIC)): 0.12 µg/mL (≈ 0.27 µM) | MIC ([10]; KLE2238, read-out: Minimum inhibitory concentration (MIC)): 0.06 µg/mL (≈ 0.135 µM) | MIC (Borreliella miyamotoi; Borreliella, read-out: Minimum inhibitory concentration (MIC)): 0.12 µg/mL (≈ 0.27 µM) | MIC ([11]; ATCC23582, read-out: Minimum inhibitory concentration (MIC)): 2 µg/mL (≈ 4.5 µM) | MIC ([12]; ATCC13047, read-out: Minimum inhibitory concentration (MIC)): 8 µg/mL (≈ 18 µM) | MIC ([13]; ATCC25931, Shigella sonnei ATCC 25931, anaerobic, read-out: Minimum inhibitory concentration (MIC)): 4 µg/mL (≈ 9 µM) | MIC (Borrelia bavariensis; Borreliella bavariensis, read-out: Minimum inhibitory concentration (MIC)): 0.12 µg/mL (≈ 0.27 µM) | MIC ([14]; ATCCBAA999, Bifidobacterium longum ATCC BAA-999, anaerobic, read-out: Minimum inhibitory concentration (MIC)): 0.25 µg/mL (≈ 0.563 µM) | MIC ([15]; KLE2369, read-out: Minimum inhibitory concentration (MIC)): 0.25 µg/mL (≈ 0.563 µM) | MIC ([16]; DSM16138, read-out: Minimum inhibitory concentration (MIC)): 0.25 µg/mL (≈ 0.563 µM) | MIC ([17]; ATCC27340, read-out: Minimum inhibitory concentration (MIC)): 2 µg/mL (≈ 4.5 µM) | MIC ([18]; Borreliella burgdorferi, N40, read-out: Minimum inhibitory concentration (MIC)): 0.25 µg/mL (≈ 0.563 µM) | MIC ([19]; KLE2382, read-out: Minimum inhibitory concentration (MIC)): 0.01 µg/mL (≈ 0.0225 µM) | MIC ([20]; KLE2370, read-out: Minimum inhibitory concentration (MIC)): 0.12 µg/mL (≈ 0.27 µM) | MIC ([21]; KLE2378, read-out: Minimum inhibitory concentration (MIC)): 0.5 µg/mL (≈ 1.13 µM) | MIC ([22]; KLE2306, read-out: Minimum inhibitory concentration (MIC)): 0.01 µg/mL (≈ 0.0225 µM)

Hygromycin A
Minimum inhibitory concentration (MIC) ([1]; Clostridium perfringens KLE 2326, anaerobic, stool isolate): 8 µg/mL | MIC [2]: 0.25 µg/mL | Minimum inhibitory concentration (MIC) ([2]; Borreliella burgdorferi B31, microaerophilic): 0.25 µg/mL | Minimum inhibitory concentration (MIC) [3]: 4 µg/mL | MIC (Borrelia afzelii; B. afzelii): 0.25 µg/mL | MIC (Borrelia afzelii; Borrelia afzelii): 0.25 µg | Minimum inhibitory concentration (MIC) (Borrelia afzelii; Borreliella afzelii, microaerophilic): 0.25 µg/mL | MIC ([4]; Lactobacillus reuteri): 32 µg | Minimum inhibitory concentration (MIC) ([4]; Lactobacillus reuteri ATCC 23272, anaerobic): 32 µg/mL | MIC ([5]; Salmonella typhimurium): >128 µg | Minimum inhibitory concentration (MIC) ([5]; Salmonella typhimurium LT2 ATCC 19585, anaerobic): >128 µg/mL | Minimum inhibitory concentration (MIC) [6]: 8 µg/mL | Increases in Enterococcaceae or Enterobacteriaceae (murine gut microbiome; HygA 50 mg/kg oral, 5 days): did not lead to increases | Mice that maintained Bacteroidaceae levels (murine gut microbiome; HygA 50 mg/kg oral, 5 days): 1/5 | Mice with decreased Bacteroidaceae (murine gut microbiome; HygA 50 mg/kg oral, 5 days): 3/5 | Mice with increased Bacteroidaceae (murine gut microbiome; HygA 50 mg/kg oral, 5 days): 1/5 | Overall fluctuation of Bacteroidaceae (murine gut microbiome; HygA 50 mg/kg oral, 5 days, not significantly different from untreated): −8.5 % relative abundance | Change in symbiotic Lactobacillus and Lactococcus (murine gut microbiome; after treatment): prominent increase | Changes in the composition of the microbiota (murine gut microbiome; clinically relevant doses, 16S rDNA sequencing, FIG. 8, 9A, 9B): milder | Minimum inhibitory concentration (MIC) [7]: 1 µg/mL | Minimum inhibitory concentration (MIC) ([9]; Brevinema andersonii ATCC 43811, microaerophilic): 2 µg/mL | Minimum inhibitory concentration (MIC) [10]: 16 µg/mL | Minimum inhibitory concentration (MIC) (Borreliella miyamotoi; Borreliella miyamotoi, microaerophilic): 0.25 µg/mL | MIC [11]: 4 µg | Minimum inhibitory concentration (MIC) ([11]; Leptospira biflexa ATCC 23582): 4 µg/mL | Minimum inhibitory concentration (MIC) [12]: >128 µg/mL | MIC ([13]; Shigella sonnei): 64 µg | Minimum inhibitory concentration (MIC) ([13]; Shigella sonnei ATCC 25931, anaerobic): 64 µg/mL | MIC (Borrelia bavariensis; B. bavariensis): 0.25 µg/mL | MIC (Borrelia bavariensis; Borrelia bavariensis): 0.25 µg | Minimum inhibitory concentration (MIC) (Borrelia bavariensis; Borreliella bavariensis, microaerophilic): 0.25 µg/mL | MIC ([14]; Bifidobacterium longum): 8 µg | Minimum inhibitory concentration (MIC) ([14]; Bifidobacterium longum ATCC BAA-999, anaerobic): 8 µg/mL | Minimum inhibitory concentration (MIC) [15]: 8 µg/mL | MIC [16]: 0.5 µg | Minimum inhibitory concentration (MIC) ([16]; Borrelia turcica DSM 16138, microaerophilic): 0.5 µg/mL | Minimum inhibitory concentration (MIC) [17]: 64 µg/mL | Minimum inhibitory concentration (MIC) ([18]; Borreliella burgdorferi N40, microaerophilic): 0.25 µg/mL | Minimum inhibitory concentration (MIC) [19]: 64 µg/mL | Minimum inhibitory concentration (MIC) [20]: 2 µg/mL | Minimum inhibitory concentration (MIC) [21]: 32 µg/mL | Minimum inhibitory concentration (MIC) [22]: 64 µg/mL
